Measured values published in patent publication US20170145002A1, “DEUTERATED ISOXAZOLE DERIVATIVES AND THEIR USE AS METABOTROPIC GLUTAMATE RECEPTOR POTENTIATORS” (AstraZeneca AB, priority 2015, published 2017).

Experiments:
[1] = Metabolic stability and intrinsic clearance in human liver microsomes (HLM); type: in vitro ADME; conditions: pooled human liver microsomes, NADPH, 37° C., 0.5-30 minutes; for microsomal CLint at 1 μM: read-out: Human Liver Microsomes Median CLint; for half-life at 1 μM: read-out: Human Liver Microsomes Median t1/2
Experimental: This assay was used to measure the in vitro metabolic stability of Compounds A, B, C and D of the application in pooled human liver microsomes. The concentration of parent compound in the reaction system for calculating intrinsic clearance of the compounds and estimating their stability in pooled human liver microsomes was evaluated by LC/MS/MS. 100 μmol/L solutions of each Compound A, B, C and D as well as 100 μmol/L solutions of each positive control compound (i.e., phenacetin, verapamil, diclofenac, imiprimine, benzydamine and metoprolol) were prepared by adding 2 μL of 10 mmol/L stock solution in DMSO to 198 μL of acetonitrile. A 1.1236 mg/mL HLM mixture was prepared by adding 1325 μL of 20 mg/mL HLM to 22260 μL of phosphate buffer. The HLM mixture (222.5 μL of the 1.1236 mg/mL mixture) and 25 μL of a 10 mM NADPH solution were added to the incubation plates. After mixing on a whirly mixer for 10 seconds, the incubation plates were pre-warmed at 37° C. for 8 minutes. The solutions of Compounds A, B, C and D (2.5 μL of the 100 μM solutions prepared before) as well as positive control solutions (2.5 μL of the 100 μM solutions prepared before) were added to the incubation plate. The incubation mixture was mixed on a whirly mixer for 10 seconds and incubation was carried out at 37° C. The reaction was quenched by transferring 20 μL of the incubated mixture at 0.5, 5, 10, 15, 20 and 30 minutes into the quenching plate containing 100 μL of cold acetonitrile. The quenching plates at 4000 rpm were centrifuged for 20 minutes, placed at 4 ° C. for 30 minutes, then re-centrifuged at 4000 rpm for 20 minutes to precipitate protein. The supernatant of each compound (40 μL) was transferred into a 96-well analysis plate. Compounds A, B, C and D were pooled together into one cassette, and pure water (160 μL) was added in each well. All incubations were performed in singlicate. API 4000 (AB sciex, USA) Ultra mass spectrometer was used to carry out the samples analysis in the MRM mode (MS/MS). Peak areas were determined from extracted ion chromatograms. Percentage of parent compound remaining was calculated from peak area of each compound or positive control. The slope value, k, was determined by linear regression of the natural logarithm of percent parent remaining vs. incubation time curve.
All calculations were carried out using Microsoft Excel. The in vitro half-life (in vitro t1/2) was determined from the slope value, wherein in vitro t1/2=−(0.693/k). Conversion of the in vitrot1/2 (in min) into the in vitro intrinsic clearance (in vitro CLint, in μL/min/mg proteins) was done by using the following equation:
in vitro CLint=(0.693/t1/2)*(volume of incubation (μL)/amount of proteins (mg)).

CYP3A4 = CYP3A4 (Homo sapiens, UniProt P08684); test: CYP isoform phenotyping; type: in vitro ADME; conditions: for Contribution of CYP3A4 to metabolism (in words): assay conditions of Example 8; for CYP 3A4 (% contribution): recombinant human CYP isozymes, parent disappearance
CYP3A4, sequence (P08684 whole entry, canonical isoform): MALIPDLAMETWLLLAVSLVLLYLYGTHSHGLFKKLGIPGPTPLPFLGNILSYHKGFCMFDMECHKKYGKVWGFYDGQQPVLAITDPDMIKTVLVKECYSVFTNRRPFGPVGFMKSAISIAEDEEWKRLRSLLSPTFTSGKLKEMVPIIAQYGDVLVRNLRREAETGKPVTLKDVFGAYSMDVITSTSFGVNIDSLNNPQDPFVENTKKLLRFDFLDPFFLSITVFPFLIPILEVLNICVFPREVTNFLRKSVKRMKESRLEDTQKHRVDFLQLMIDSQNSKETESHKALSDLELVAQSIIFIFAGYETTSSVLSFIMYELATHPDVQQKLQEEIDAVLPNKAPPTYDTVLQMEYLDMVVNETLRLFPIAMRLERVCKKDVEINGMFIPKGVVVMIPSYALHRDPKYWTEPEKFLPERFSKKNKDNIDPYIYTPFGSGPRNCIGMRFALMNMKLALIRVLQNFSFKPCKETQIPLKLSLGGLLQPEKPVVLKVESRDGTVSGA
Experimental: This assay was used to determine whether Compounds A, B, C and D are metabolised by CYP enzymes.
Solutions (200 μmol/L) of each Compound A, B, C and D as well as of positive controls (phenacetin for CYP1A2, coumarin for CYP2A6, bupropion for CYP2B6, amitriptyline for CYP2C8, 2C19, 2D6 and 3A4, diclofenac for CYP2C9, chlorzoxazone for CYP2E1, midazolam for CYP3A5) were prepared by adding 4 μL of a 10 mmol/L stock solution in DMSO to 196 μL of acetonitrile. The recombinant human CYP isozymes were thawed on wet ice (over an hour). Mixtures (2670 μL) of CYP isozymes in phosphate buffer containing 112.36 nmol/L CYP1A2, 2A6, 2B6, 2C8, 2C9, 2C19, 2D6, 2E1, 3A4 or 3A5 were prepared. The CYP isozyme mixture (222.5 [EL), 25 μL of 10 mmol/L of NADPH solution and 2.5 μL of vehicle control (2: 98 DMSO/acetonitrile) were added to the blank control plate. The resulting mixture was mixed on a whirly mixer for 10 seconds before a stop solution (1000 μL) with internal standard containing 200 nmol/L of 5,5-diethyl-1,3-diphenyl-2-iminobarbituric acid and 100 nmol/L of tolbutamide was added. The blank control plate was sealed with a lid and mixed on whirly mixer for 120 seconds, and kept on ice prior to centrifugation.
The standard samples containing 200 pmol/mL hydroxybupropion and 40 pmol/mL 6-hydroxychlorzoxazone were obtained as follows: the CYP isozyme mixture (222.5 μL) and 25 μL of 10 mmol/L NADPH solution were added to separate wells of the blank control plate. 2.5 μL of a 20 nmol/mL hydroxybupropion solution was added to one well and 2.5 μL of a 4 nmol/mL 6-hydroxychlorzoxazone solution was added to the other well. Mixing was conducted on a whirly mixer for 10 seconds. The stop solution with internal standard (1000 μL) was added to both wells. The blank control plate was sealed with a lid and mixing was conducted on a whirly mixer for 120 seconds. The blank control plate was kept on ice prior to centrifugation.
The CYP isozyme mixtures (222.5 μL) and Compounds A, B, C, D and the positive controls (2.5 μL of each 200 μmol/L solution) were added to the incubation plates. Mixing on a whirly mixer was conducted for 10 seconds. The incubation plate was pre-warmed at 37° C. for 15 minutes. The CYP/compound mixture (27 μL) was transferred from the incubation plate to the 0 minute “Quenching plates” containing 120 μL of the stop solution and 3 μL of a 10 mmol/L NADPH solution. The 0 minute “Quenching plates” was sealed with a lid and kept on ice. Mixing of the 0 minute “Quenching plates” on a whirly mixer was conducted for 120 seconds. The reaction was initiated with the addition of 22 μL of a 10 mmol/L of NADPH solution to the incubation plate. Mixing of the incubation mixture on a whirly mixer was conducted for 10 seconds. The incubation was carried out at 37° C. At 5, 10, 15 and 25 minutes, the incubation mixture was mixed on a whirly mixer for 10 seconds and samples of the incubated mixture (30 μL) were transferred at each time point to wells in a separate “Quenching plate” containing 120 μL of the stop solution, which was sealed with a lid and kept on ice. Mixing on a whirly mixer was conducted for 120 seconds. […]
All calculations are carried out using Microsoft Excel. Peak areas were determined from extracted ion chromatograms. The percentage of parent remaining was calculated from peak area of Compounds A, B, C, D and positive controls. […]

microsomal CLint at 1 μM [1] [µL/min/mg] | half-life at 1 μM [1] [h] | Contribution of CYP3A4 to metabolism (in words) (CYP3A4) | CYP 3A4 (% contribution) (CYP3A4) [%] | SMILES
< 3 | > 3.85 | no measureable contribution | – | [2H]C1([2H])OC([2H])([2H])C([2H])([2H])N(C(=O)c2cc(-c3cc(Cl)c4c(c3)CN([C@@H](C)C3CC3)C4=O)on2)C1([2H])[2H] [Compound A, (S)-7-chloro-2-(1-cyclopropylethyl)-5-(3-(morpholine-4-carbonyl-2,2,3,3,5,5,6,6-d8)isoxazol-5-yl)isoindolin-1-one]
9.5 | 1.22 | – | 82.3 | [2H]C1([2H])CN(C(=O)c2cc(-c3cc(Cl)c4c(c3)CN([C@@H](C)C3CC3)C4=O)on2)CC([2H])([2H])O1 [Compound B, (S)-7-chloro-2-(1-cyclopropylethyl)-5-(3-(morpholine-4-carbonyl-2,2,6,6-d4)isoxazol-5-yl)isoindolin-1-one]
7 | 1.66 | – | 99.7 | [2H]C1([2H])COCC([2H])([2H])N1C(=O)c1cc(-c2cc(Cl)c3c(c2)CN([C@@H](C)C2CC2)C3=O)on1 [Compound C, (S)-7-chloro-2-(1-cyclopropylethyl)-5-(3-(morpholine-4-carbonyl-3,3,5,5-d4)isoxazol-5-yl)isoindolin-1-one]
9.5 | 1.22 | metabolized predominately by CYP3A4 | 100 | C[C@@H](C1CC1)N1Cc2cc(-c3cc(C(=O)N4CCOCC4)no3)cc(Cl)c2C1=O [Compound D, (S)-7-chloro-2-(1-cyclopropylethyl)-5-(3-(morpholine-4-carbonyl)isoxazol-5-yl)isoindolin-1-one, reference compound]
